# Results taken from patent US8623863B2, “Disubstituted azepan orexin receptor antagonists” (Merck Sharp & Dohme Corp., priority 2008, dated 2014).
# Molecular target: orexin-2 receptor (OX2R) (Homo sapiens (Human), UniProt O43614)
# Assay: radioligand binding assay, OX2R
# Conditions: membranes prepared from CHO cells expressing the orexin-2 (OX2) receptor
# Experimental: The utility of the compounds in accordance with the present invention as orexin receptor OX1R and/or OX2R antagonists may be readily determined without undue experimentation by methodology well known in the art, including the “FLIPR Ca^2+ Flux Assay” (Okumura et al., Biochem. Biophys. Res. Comm. 280:976-981, 2001). In a typical experiment the OX1 and OX2 receptor antagonistic activity of the compounds of the present invention was determined in accordance with the following experimental method. For intracellular calcium measurements, Chinese hamster ovary (CHO) cells expressing the rat OX1 receptor or the human OX2 receptor, are grown in Iscove's modified DMEM containing 2 mM L-glutamine, […], 1% hypoxanthine-thymidine supplement, 100 U/ml penicillin, 100 ug/ml streptomycin and 10% heat-inactivated fetal calf serum (FCS). The cells are seeded at 20,000 cells/well into Becton-Dickinson black 384-well clear bottom sterile plates coated with poly-D-lysine. All reagents were from GIBCO-Invitrogen Corp. The seeded plates are incubated overnight at 37° C. and 5% CO2. Ala-6,12 human orexin-A as the agonist is prepared as a 1 mM stock solution in 1% bovine serum albumin (BSA) and diluted in assay buffer (HBSS containing 20 mM HEPES, 0.1% BSA and 2.5 mM probenecid, pH7.4) for use in the assay at a final concentration of 70 pM. Test compounds are prepared as 10 mM stock solution in DMSO, then diluted in 384-well plates, first in DMSO, then assay buffer. On the day of the assay, cells are washed 3 times with 100 ul assay buffer and then incubated for 60 min (37° C., 5% CO2) in 60 ul assay buffer containing 1 uM Fluo-4AM ester, 0.02% pluronic acid, and 1% BSA. The dye loading solution is then aspirated and cells are washed 3 times with 100 ul assay buffer. 30 ul of that same buffer is left in each well. Within the Fluorescent Imaging Plate Reader (FLIPR, Molecular Devices), test compounds are added to the plate in a volume of 25 ul, incubated for 5 min and finally 25 ul of agonist is added. Fluorescence is measured for each well at 1 second intervals for 5 minutes and the height of each fluorescence peak is compared to the height of the fluorescence peak induced by 70 pM Ala-6,12 orexin-A with buffer in place of antagonist. For each antagonist, IC50 value (the concentration of compound needed to inhibit 50% of the agonist response) is determined. Alternatively, compound potency can be assessed by a radioligand binding assay (described in Bergman et. al. Bioorg. Med. Chem. Lett. 2008, 18, 1425-1430) in which the inhibition constant (Ki) is determined in membranes prepared from CHO cells expressing either the orexin-1 (OX1) or orexin-2 (OX2) receptor. The intrinsic orexin receptor antagonist activity of a compound which may be used in the present invention may be determined by these assays.
# Sequence of orexin-2 receptor (OX2R) (O43614 whole entry): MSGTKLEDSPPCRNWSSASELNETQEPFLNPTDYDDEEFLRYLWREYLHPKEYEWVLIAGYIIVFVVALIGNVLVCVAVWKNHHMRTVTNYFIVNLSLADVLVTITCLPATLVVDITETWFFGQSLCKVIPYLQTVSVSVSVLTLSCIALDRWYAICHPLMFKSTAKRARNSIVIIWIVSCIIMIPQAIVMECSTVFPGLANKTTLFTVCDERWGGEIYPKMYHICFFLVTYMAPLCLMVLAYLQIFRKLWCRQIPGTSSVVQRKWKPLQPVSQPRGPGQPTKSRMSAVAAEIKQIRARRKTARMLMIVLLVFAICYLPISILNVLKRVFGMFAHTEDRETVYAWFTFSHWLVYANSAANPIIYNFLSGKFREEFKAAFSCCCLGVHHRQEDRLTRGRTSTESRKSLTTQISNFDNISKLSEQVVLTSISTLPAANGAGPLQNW
row,Structure (SMILES),Ki
1,"Cc1ccc(-n2nccn2)c(C(=O)N2CC(COc3ccc(F)c(C)c3)CCCC2C)c1 (stereo not drawn) [2-8, 6-[(4-fluoro-3-methylphenoxy)methyl]-2-methyl-1-[5-methyl-2-(2H-1,2,3-triazol-2-yl)benzoyl]azepane]",3.3 nM
2,"Cc1ccc(-n2nccn2)c(C(=O)N2CCCCC(COc3ccc(F)c(C)c3)C2)c1 (stereo not drawn) [1-8, 3-[(4-Fluoro-3-methylphenoxy)methyl]-1-[5-methyl-2-(2H-1,2,3-triazol-2-yl)benzoyl]azepane]",7.9 nM
3,"Cc1ccc(-n2nccn2)c(C(=O)N2CC(COc3ccc(F)cn3)CCCC2C)c1 (stereo not drawn) [2-10, 6-{[(5-fluoropyridin-2-yl)oxy]methyl}-2-methyl-1-[5-methyl-2-(2H-1,2,3-triazol-2-yl)benzoyl]azepane]",9.7 nM
4,"Cc1ccc(-c2ncccn2)c(C(=O)N2CC(COc3ccc(F)c(C)c3)CCCC2C)c1 (stereo not drawn) [3-3, 6-[(4-fluoro-3-methylphenoxy)methyl]-2-methyl-1-(5-methyl-2-pyrimidin-2-ylbenzoyl)azepane]",10 nM
5,"CC1CCCC(COc2ccc(F)cn2)CN1C(=O)c1ccccc1-n1nccn1 (stereo not drawn) [2-11, 6-{[(5-fluoropyridin-2-yl)oxy]methyl}-2-methyl-1-[2-(2H-1,2,3-triazol-2-yl)benzoyl]azepane]",28 nM
6,"Cc1cc(OCC2COCC(C)N(C(=O)c3ccccc3-n3nccn3)C2)ccc1F (stereo not drawn) [4-9, 6-[(4-fluoro-3-methylphenoxy)methyl]-3-methyl-4-[2-(2H-1,2,3-triazol-2-yl)benzoyl]-1,4-oxazepane]",11 nM
7,"Cc1ccc(-c2ncccn2)c(C(=O)N2CC(COc3ccc(F)cn3)CCCC2C)c1 (stereo not drawn) [3-6, 6-{[(5-fluoropyridin-2-yl)oxy]methyl}-2-methyl-1-(5-methyl-2-pyrimidin-2-ylbenzoyl)azepane]",14 nM
8,"Cc1ccc(-c2nccs2)c(C(=O)N2CC(COc3ccc(F)cn3)CCCC2C)c1 (stereo not drawn) [3-5, 6-{[(5-fluoropyridin-2-yl)oxy]methyl}-2-methyl-1-[5-methyl-2-(1,3-thiazol-2-yl)benzoyl]azepane]",3.8 nM
9,"Cc1ccc(-c2ncco2)c(C(=O)N2CC(COc3ccc(F)cn3)CCCC2C)c1 (stereo not drawn) [3-4, 6-{[(5-fluoropyridin-2-yl)oxy]methyl}-2-methyl-1-[5-methyl-2-(1,3-oxazol-2-yl)benzoyl]azepane]",13 nM
10,"Cc1cc(OCC2CCCC(C)N(C(=O)c3ccccc3-n3nccn3)C2)ccc1F (stereo not drawn) [2-9, 6-[(4-fluoro-3-methylphenoxy)methyl]-2-methyl-1-[2-(2H-1,2,3-triazol-2-yl)benzoyl]azepane]",10 nM
11,"Cc1ccc(-n2nccn2)c(C(=O)N2CC(COc3ccc(F)c(C)c3)COCC2C)c1 (stereo not drawn) [4-8, 6-[(4-fluoro-3-methylphenoxy)methyl]-3-methyl-4-[5-methyl-2-(2H-1,2,3-triazol-2-yl)benzoyl]-1,4-oxazepane]",8.7 nM
12,"Cc1ccc(-c2nccs2)c(C(=O)N2CC(COc3ccc(F)c(C)c3)CCCC2C)c1 (stereo not drawn) [3-2, 6-[(4-fluoro-3-methylphenoxy)methyl]-2-methyl-1-[5-methyl-2-(1,3-thiazol-2-yl)benzoyl]azepane]",4.2 nM
